This experiment has as its system recombinant NL-Rluc virus (NL4-3 with Renilla Luciferase gene) in MT-2 cells. Briefly: Inhibition of HIV replication (NL-Rluc luciferase reporter virus, MT-2 cells). It counts as cell-based, human immunodeficiency virus (HIV). The following applies: NL43, 120 h.

Counter-ions that a name gives are not always drawn. Like-named read-outs stand apart in the source and are kept apart here.

EC50 data for ten compounds are collected here from patent US8633200B2, “Inhibitors of human immunodeficiency virus replication” (priority 2010, dated 2014).

In the case of `Cc1nc2cc(-c3cccc(OCc4cccc(Cl)c4)c3)nn2c(-c2cc(F)c3c(c2C)CCCO3)c1C(OC(C)(C)C)C(=O)O` (centres unmarked) [Example 104, 2-tert-Butoxy-2-(2-(3-(3-chlorobenzyloxy)phenyl)-7-(8-fluoro-5-methylchroman-6-yl)-5-methylpyrazolo[1,5-a]pyrimidin-6-yl)acetic acid, TFA salt], the EC50 (read-out: Activity) was under 0.1 µM. Same read-out and setting: as for `Cc1ccc(-c2cc3nc(C)c(C(OC(C)(C)C)C(=O)O)c(-c4cc(F)c5c(c4C)CCCO5)n3n2)cc1OCc1ccccc1` (centres unmarked) [Example 105, 2-(2-(3-(Benzyloxy)-4-methylphenyl)-7-(8-fluoro-5-methylchroman-6-yl)-5-methylpyrazolo[1,5-a]pyrimidin-6-yl)-2-tert-butoxyacetic acid], the figure is under 0.1 µM. On to `Cc1nc2cc(-c3cccc(OCc4ccc(Cl)cc4)c3)nn2c(-c2cc(F)c3c(c2C)CCCO3)c1C(OC(C)(C)C)C(=O)O` (centres unmarked) [Example 106, 2-tert-Butoxy-2-(2-(3-(4-chlorobenzyloxy)phenyl)-7-(8-fluoro-5-methylchroman-6-yl)-5-methylpyrazolo[1,5-a]pyrimidin-6-yl)acetic acid, TFA salt], for which the EC50 (read-out: Activity) was under 0.1 µM and the EC50 (read-out: EC50 μM) was 0.04 µM. As for `Cc1nc2cc(-c3ccnc(OCc4ccccc4)c3)nn2c(-c2cc(F)c3c(c2C)CCCO3)c1C(OC(C)(C)C)C(=O)O` (centres unmarked) [Example 107, 2-(2-(2-(Benzyloxy)pyridin-4-yl)-7-(8-fluoro-5-methylchroman-6-yl)-5-methylpyrazolo[1,5-a]pyrimidin-6-yl)-2-tert-butoxyacetic acid, TFA salt], the EC50 is under 0.1 µM (read-out: Activity) and 0.008 µM (read-out: EC50 μM). With `Cc1nc2cc(-c3ccc(OCc4ccccc4)nc3)nn2c(-c2cc(F)c3c(c2C)CCCO3)c1C(OC(C)(C)C)C(=O)O` (centres unmarked) [Example 108, 2-(2-(6-(Benzyloxy)pyridin-3-yl)-7-(8-fluoro-5-methylchroman-6-yl)-5-methylpyrazolo[1,5-a]pyrimidin-6-yl)-2-tert-butoxyacetic acid, TFA salt], the EC50 (read-out: Activity) was under 0.1 µM. Consider `Cc1nc2cc(-c3ccnc(F)c3)nn2c(-c2cc(F)c3c(c2C)CCCO3)c1C(OC(C)(C)C)C(=O)O` (centres unmarked) [Example 109, 2-tert-Butoxy-2-(7-(8-fluoro-5-methylchroman-6-yl)-2-(2-fluoropyridin-4-yl)-5-methylpyrazolo[1,5-a]pyrimidin-6-yl)acetic acid, TFA salt], for which the EC50 reads like this: (read-out: Activity) 0.1 to 1 µM; (read-out: EC50 μM) 0.27 µM. On to `Cc1nc2cc(-c3cccc(C(=O)Nc4ccccc4)c3)nn2c(-c2cc(F)c3c(c2C)CCCO3)c1C(OC(C)(C)C)C(=O)O` (centres unmarked) [Example 110, 2-tert-Butoxy-2-(7-(8-fluoro-5-methylchroman-6-yl)-5-methyl-2-(3-(phenylcarbamoyl)phenyl)pyrazolo[1,5-a]pyrimidin-6-yl)acetic acid, TFA salt], for which the EC50 (read-out: Activity) lay within 0.1 to 1 µM. As for `Cc1nc2cc(-c3cccc(C(=O)NCc4ccccc4)c3)nn2c(-c2cc(F)c3c(c2C)CCCO3)c1C(OC(C)(C)C)C(=O)O` (centres unmarked) [Example 111, 2-(2-(3-(Benzylcarbamoyl)phenyl)-7-(8-fluoro-5-methylchroman-6-yl)-5-methylpyrazolo[1,5-a]pyrimidin-6-yl)-2-tert-butoxyacetic acid, TFA salt], for the setting “read-out: Activity”, the EC50 lay within 0.1 to 1 µM. With `Cc1nc2cc(-c3ccc(Oc4ccccc4)cc3)nn2c(-c2ccc3c(c2)CCCO3)c1C(OC(C)(C)C)C(=O)O` (centres unmarked) [Example 112, 2-tert-Butoxy-2-(7-(chroman-6-yl)-5-methyl-2-(4-phenoxyphenyl)pyrazolo[1,5-a]pyrimidin-6-yl)acetic acid, TFA salt], the EC50 (read-out: Activity) lay in the range of 0.1 to 1 µM. As for `Cc1nc2cc(-c3ccc4c(c3)CCCO4)nn2c(-c2ccc3c(c2)CCCO3)c1C(OC(C)(C)C)C(=O)O` (centres unmarked) [Example 113, 2-tert-Butoxy-2-(2,7-di(chroman-6-yl)-5-methylpyrazolo[1,5-a]pyrimidin-6-yl)acetic acid, TFA salt], the EC50 runs as follows: (read-out: Activity) 0.1 to 1 µM; (read-out: EC50 μM) 0.11 µM.
